According to PubChem BioAssay AID977607 (Broad Institute, 2014):
Several values for one entry are separate records, joined by “and”; a condition that tells them apart may be missing. Equal entries are not always repeated. Activity calls are given as the source filed them.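 The calls were made as follows: active = curve reaches 40% activation over neutral controls at an AC40 no higher than the top valid tested concentration; inconclusive = no clear call, values can overlap the other calls; inactive = signal moving opposite to the expected increase, and the rest.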

Test system: INS-1E GLuc insulin secretion reporter, luminescence, 2-3 h
Test: activators of glucose-dependent insulin secretion, dose response, cell-based, INS-1E, Gaussia luciferase, luminescence, cherry-pick, set 2 (AID 977607)

Compound: COc1cc2c(cc1OC)[C@H](C)N(C(=O)NCc1ccccc1)CC2
- AC40: 8 µM

Compound: COc1ccc(C(=O)Cc2ccc3c(c2)OCO3)c(O)c1
- AC40: > 35 µM (inactive)

Compound: CCCCCCN1C[C@H](n2cc(C3CC3)nn2)[C@@H](O)C[C@@H]1c1ccc(C)cc1
- AC40: 7.33 µM

Compound: COC(=O)c1sccc1NC(=O)COc1ccc(Cl)cc1Cl
- AC40: 9.33 µM

Compound: Oc1ccccc1C1SC(c2ccccc2O)SC(c2ccccc2O)S1 (configuration not stated)
- AC40: 6.08 µM

Compound: COc1cc(CN2C[C@@H]3N[C@H](C2)C3c2ccc(/C=C/c3ccccc3)cc2)cc(OC)c1 (some centres not stated)
- AC40: 5.5 µM

Compound: COc1cccc(OCc2nc3c4cnn(-c5ccccc5)c4ncn3n2)c1
- AC40: 8.5 µM

Compound: Cc1cc(NC(=O)c2cc(-c3cccc(Cl)c3)on2)no1
- AC40: 5.68 µM

Compound: CC(C)n1nc(C(=O)Nc2ccccc2N2CCOCC2)c2ccccc2c1=O
- AC40: 8.07 µM

Compound: CCOC(=O)[C@]12Cc3cc(OC)ccc3[C@H]1N(C1CCCCC1)C(=O)c1cc(OC)ccc12
- AC40: 12 µM

Compound: COc1ccc(/C=N/NC(=O)CCOc2ccccc2C)cc1OC
- AC40: 7.01 µM

Compound: Cc1ccc(CN(C(=O)c2cccs2)C2CCS(=O)(=O)C2)cc1 (configuration not stated)
- AC40: 19.7 µM

Compound: COc1ccc(C2CC(=O)Nc3sc(=N)c4c(N)c(C#N)c(N)nc4c32)cc1OC (configuration not stated)
- AC40: 6.1 µM

Compound: O=C1c2cccnc2C(Nc2cccc(F)c2)N1Cc1ccco1 (configuration not stated)
- AC40: 28.5 µM

Compound: CCOC(=O)c1nc(SC)n(C)c1C(=O)OCC
- AC40: 4.49 µM

Compound: Cc1ccc(-c2n[nH]c(=S)n2/N=C/c2c(C)nn(-c3ccccc3)c2C)cc1
- AC40: 11.2 µM

Compound: COc1ccc(Cn2c(=O)c3[nH]cnc3n(-c3ccccc3C)c2=O)cc1
- AC40: 10.4 µM

Compound: Cc1ccc(-c2cc(C(=O)NCc3cnn(C)c3)c3cc(Br)ccc3n2)cc1
- AC40: 3.7 µM

Compound: N#Cc1cccc(-c2ccc([C@@H]3[C@@H]4CN(S(=O)(=O)c5ccc(-c6ccccc6)cc5)C[C@H]3N4)cc2)c1
- AC40: 3.49 µM

Compound: CCOC(=O)c1cnc2ccc(Cl)cc2c1Nc1ccc(S(=O)(=O)Nc2ncccn2)cc1
- AC40: 3.45 µM

Compound: FC(F)(F)c1cc(CCN2CCNC[C@H]2Cc2cccc3ccccc23)cc(C(F)(F)F)c1
- AC40: 7.24 µM

Compound: Cc1nc(NC(=O)c2cccc(-c3cc4ccccc4oc3=O)c2)ccc1Br
- AC40: 12.7 µM

Compound: Nc1c(C(=O)Nc2ccc3c(c2)OCCO3)nnn1Cc1ccc(Cl)cc1
- AC40: 12.7 µM

Compound: NS(=O)(=O)c1ccc(NC(=O)COC(=O)c2cn(-c3ccccc3)nc2-c2ccc(F)cc2)cc1
- AC40: 4.82 µM

Compound: O=C(Nc1cccc(Cl)c1)Nc1nnc(CSCCOc2ccc(Cl)cc2)s1
- AC40: 5.57 µM

Compound: O=C(Nc1ccc2c(c1)OCO2)N1C[C@@H]2N[C@H](C1)C2c1ccc(C=Cc2ccccc2)cc1 (some centres not stated)
- AC40: 9.05 µM

Compound: COc1ccc(NC(=O)c2csc(C)c2)cc1OC
- AC40: > 35 µM (inactive)

Compound: NC(N)=N/N=C/c1ccc(OCc2ccccc2Cl)cc1
- AC40: 16.4 µM

Compound: CCC(C)Sc1cccc(-c2nc3cnccn3c2NC2CCCCC2)c1 (configuration not stated)
- AC40: 5.37 µM

Compound: CCOC(=O)c1c(NC(=O)Cn2nc(C(F)(F)F)cc2C)sc(C)c1C
- AC40: 9.34 µM

Compound: COc1cc2c(cc1OC)-c1cc(Nc3ccccc3C)nc(=O)n1CC2
- AC40: 0.408 µM

Compound: CCN=C1NC(c2ccc(C(F)(F)F)cc2)C(C(=O)OC)=C(C)N1Cc1cccc(C(F)(F)F)c1 (configuration not stated)
- AC40: 14.3 µM

Compound: C/C=C/c1ccc(C2[C@@H]3CN(C(=O)Nc4ccc(C(F)(F)F)cc4)C[C@H]2N3)cc1 (some centres not stated)
- AC40: 12.5 µM

Compound: NS(=O)(=O)c1ccc(NC(=S)N2CCN(c3ccc(Cl)c(Cl)c3)CC2)cc1
- AC40: 9.46 µM

Compound: CCSc1nnc(NC(=O)c2csc3c2CCCC3)s1
- AC40: 2.22 µM

Compound: CCOc1ncccc1C(=O)Nc1ccccc1F
- AC40: > 35 µM (inactive)

Compound: COC(=O)C1=C(C)N(Cc2cccc(C(F)(F)F)c2)C(=NCc2ccc3c(c2)OCO3)NC1CCc1ccccc1 (configuration not stated)
- AC40: 13.1 µM

Compound: COc1cc2sc3ccc(C#Cc4ccc(N)cc4)cc3c(=O)c2cc1OC
- AC40: 33.4 µM

Compound: CC(=O)C1=C(S(=O)(=O)c2ccc(C)cc2)CS(=O)(=O)C1
- AC40: 1.23 µM

Compound: Cc1ccc(-n2nc3ccc(NC(=O)c4ccco4)cc3n2)cc1
- AC40: 10.8 µM

Compound: CC(=O)Nc1sc(N/N=C\c2cccc(Cl)c2)nc1-c1cccs1
- AC40: 6.6 µM

Compound: CCC(=NC(C)c1ccccc1)c1c(O)[nH]c(=O)[nH]c1=O (configuration not stated)
- AC40: 11.1 µM

Compound: OC(CNCCc1ccc(C(F)(F)F)cc1)COC(c1ccccc1)c1ccccc1 (configuration not stated)
- AC40: 6.21 µM

Compound: NC(c1csc(Nc2ccc(C(F)(F)F)cn2)n1)C1CCCCC1 (configuration not stated)
- AC40: 9.81 µM

Compound: O=C(OCC12CC3CC(CC(C3)C1)C2)c1ccc(NCc2cc(O)ccc2O)cc1
- AC40: 14.9 µM

Compound: O=C(Nc1ccc(F)cc1)Nc1cc(OCC(F)(F)F)cc(OCC(F)(F)F)c1
- AC40: 7.63 µM

Compound: O=C(c1ccc(F)cc1)N1C[C@@H]2N[C@H](C1)C2c1ccc(/C=C/c2ccccc2)cc1 (some centres not stated)
- AC40: 6.56 µM

Compound: COC(=O)C1=C(C)N(Cc2ccc(C(F)(F)F)cc2)C(=NCc2ccccc2)NC1c1ccc(Cl)cc1 (configuration not stated)
- AC40: 8.24 µM

Compound: CC1(C(=O)NS(=O)(=O)c2ccc(C#N)cc2)CCN1C(=O)C1(c2ccccc2)CCCC1 (configuration not stated)
- AC40: > 35 µM (inactive)

Compound: COc1ccc(/C=N/NC(=O)Cn2nnc3ccccc32)cc1OC
- AC40: 24.4 µM

Compound: CC(=O)Oc1ccc(Cl)cc1/C=C/c1ccc2ccccc2n1
- AC40: 24.9 µM

Compound: CCOC(=O)c1c(C)n(-c2ccc(C)cc2)c2ccc(OCC(O)CN3CCN(C)CC3)cc12 (configuration not stated)
- AC40: 12.3 µM

Compound: Cc1ccc(-n2ncc3c(=O)n(CC(=O)Nc4cccc(Cl)c4)cnc32)cc1C
- AC40: 6.37 µM

Compound: CC(NCC(O)COCCC12CC3CC(CC(C3)C1)C2)c1ccccc1 (configuration not stated)
- AC40: 14.9 µM

Compound: CCCCc1c(-c2ccccc2OC)ncn1C(C)c1ccc(Cl)cc1 (configuration not stated)
- AC40: 12.6 µM

Compound: CCc1ccc(OCC(=O)NC(=S)Nc2ccc(F)cc2)c(Br)c1
- AC40: 10 µM

Compound: CS(=O)(=O)c1ccc2nc(NC(=O)Nc3ccc(Cl)c(Cl)c3)sc2c1
- AC40: 4.78 µM

Compound: Fc1cccc(CN2C[C@@H]3N[C@H](C2)C3c2ccc(/C=C/c3ccccc3)cc2)c1 (some centres not stated)
- AC40: 11.4 µM

Compound: CC(C)Sc1nc2c(c(=O)[nH]c(=O)n2C)n1Cc1ccc(Cl)cc1
- AC40: 19.9 µM

Compound: Cc1cccc(NC(=O)c2ccc(OCc3c(C)noc3C)cc2)c1C
- AC40: 1.54 µM

Compound: COc1ccccc1CCn1cnc(-c2cccc(F)c2)c1C(C)C
- AC40: 14 µM

Compound: CC(NC(=O)COC(=O)c1ccccc1Nc1ccccc1)c1ccccc1 (configuration not stated)
- AC40: 12.2 µM

Compound: Cc1cc(C)c2oc(C(=O)Nc3ccc(S(=O)(=O)Nc4nccc(C)n4)cc3)cc(=O)c2c1
- AC40: 8.73 µM

Compound: O=C(Nc1ccc(Cl)c(Cl)c1)Nc1nc(-c2ccccc2)cs1
- AC40: 4.71 µM

Compound: COc1cc2cnc(-c3cccnc3)cc2cc1OC
- AC40: 6.19 µM

Compound: CONc1nc(NC(C)(C)C)nc(OCC#N)n1
- AC40: > 35 µM (inactive)

Compound: Cc1ccc(-c2ccc(C3[C@@H]4CN(C(=O)Nc5ccc(C(F)(F)F)cc5)C[C@H]3N4)cc2)cc1 (some centres not stated)
- AC40: 4.06 µM and 2.82 µM

Compound: FC(F)(F)c1cc(CCN2CCNC[C@@H]2c2ccccc2)cc(C(F)(F)F)c1
- AC40: 6.96 µM

Compound: Cc1ccc(C(=O)Oc2ccc(-c3nccc(-c4ccccn4)n3)cc2)cc1
- AC40: 3.99 µM

Compound: O=C(Nc1ccc2c(c1)OCO2)c1sc2cc(Cl)ccc2c1Cl
- AC40: 12 µM

Compound: FC(F)(F)c1cc(CCN2CCNC[C@@H]2Cc2ccccc2)cc(C(F)(F)F)c1
- AC40: 17.8 µM

Compound: CNc1ccc2ncc(-c3ccc(OC)c(OC)c3)n2n1
- AC40: 7.77 µM

Compound: CS(=O)(=O)c1cnc(-c2ccccc2)nc1Oc1ccc(F)cc1
- AC40: 15.1 µM

Compound: Fc1ccc(-c2cc(C(F)(F)F)nc(-n3cncn3)n2)cc1
- AC40: 0.52 µM

Compound: C=CCN(Cc1ccc(OC)c(OC)c1)C(=O)N1CCOCC1
- AC40: > 35 µM (inactive)

Compound: CC(=NC(C)c1ccccc1)c1c(O)[nH]c(=O)[nH]c1=O (configuration not stated)
- AC40: 15 µM

Compound: O[C@H]1C[C@H](c2ccccc2)N(CC2CCCCC2)C[C@@H]1n1cc(C2CC2)nn1
- AC40: 11.5 µM

Compound: CCc1ccc(-c2c(C)sc(NC(=O)C3CCC3)c2C#N)cc1
- AC40: 5.78 µM

Compound: NS(=O)(=O)c1ccc(CCNc2nc3c(-c4cccc(F)c4)nnn3c3ccccc23)cc1
- AC40: 15.9 µM

Compound: CCOC(=O)c1cn(-c2ccccc2)nc1-c1ccncc1
- AC40: 10.5 µM

Compound: CC(C)C[C@H](NC(=O)c1[nH]cnc1C(=O)N[C@@H](C)c1ccccc1)C(=O)OC(C)(C)C
- AC40: 31.3 µM

Compound: Cc1ccc(NC(=O)c2oc3ccc(S(=O)(=O)N4CCOCC4)cc3c2C)cc1C
- AC40: 15.6 µM

Compound: CC(C)CC#Cc1ccc2c(c1)O[C@@H](CN(C)Cc1ccc(F)cc1)[C@H](C)CN([C@H](C)CO)S2(=O)=O
- AC40: 10.4 µM

Compound: CCOc1ccc(CCNC(=O)COc2cc(=O)n(C)c3ccccc23)cc1OCC
- AC40: 22.6 µM

Compound: CCCc1nc2ccccc2c(=O)n1CC(=O)c1ccc(OC)cc1
- AC40: 16.4 µM

Compound: Cc1cccc(OCC(=O)Nc2ccc(NC(=O)c3ccco3)cc2)c1
- AC40: 17.8 µM

Compound: O=C(COc1ccc2c(c1)OCO2)Nc1ccc2c(c1)oc1ccccc12
- AC40: 16.4 µM

Compound: COc1cc(NC(=O)c2cccc(C)c2)ccc1NC(=O)c1cc2ccccc2o1
- AC40: 3.24 µM

Compound: COC(=O)C1=C(C)N(Cc2cccc(C(F)(F)F)c2)C(=NCc2ccc(OC)cc2)NC1c1ccc(F)cc1 (configuration not stated)
- AC40: 15.5 µM

Compound: CS(=O)(=O)N1CCN(c2ccc(NC(=O)c3ccc(-c4ccc(Cl)cc4)o3)cc2)CC1
- AC40: 9.25 µM

Compound: COc1cc(CN2CCc3ccccc3C2)ccc1O
- AC40: 6.75 µM

Compound: CCCCCCCCN1C(=O)[C@@H](CC(=O)N2CCN(C(=O)c3ccco3)CC2)C[C@@]2(C(=O)OC)C1=C[C@H](C1CCCC1)O[C@@H]2C
- AC40: 12 µM

Compound: Fc1cccc(-c2ccc(C3[C@@H]4CN(Cc5ccccc5F)C[C@H]3N4)cc2)c1 (some centres not stated)
- AC40: 5.28 µM

Compound: COc1ccc(S(=O)(=O)N2CCc3ccccc3C2)cc1OC
- AC40: 28.9 µM

Compound: COc1cc2c(cc1OC)-c1cc(Nc3ccccc3Br)nc(=O)n1CC2
- AC40: 0.366 µM

Compound: COc1ccc(CC(N)c2csc(NC(=O)Nc3ccc(C(C)C)cc3)n2)cc1 (configuration not stated)
- AC40: 6.81 µM

Compound: COc1cc(C(=O)Nc2ccn(C)n2)ccc1OC(F)F
- AC40: > 35 µM (inactive)

Compound: O=c1c2ccccc2sn1-c1ccc(F)cc1
- AC40: 7.1 µM

Compound: C=CCn1c(=NC(=O)c2cc(Cl)sc2Cl)sc2cc(S(N)(=O)=O)ccc21
- AC40: 5.55 µM

Compound: COc1cc2c(cc1OC)/C(=C/C(=O)c1ccc(NC(C)=O)cc1)NCC2
- AC40: 14.6 µM

Compound: O=c1c2ccc(Cl)cc2[nH]c(=S)n1CCC1=CCCCC1
- AC40: 3.37 µM

Compound: CCOC(=O)c1cc2sccc2n1CC(=O)N1c2ccccc2CC1C (configuration not stated)
- AC40: 3.59 µM

Compound: COc1cc2c(cc1OC)-c1cc(N3CCc4ccccc43)nc(=O)n1CC2
- AC40: 15.6 µM

Compound: COc1ccc2c(c1)CCc1c(C(=O)Nc3cc(C)n(Cc4ccc(Cl)cc4)n3)noc1-2
- AC40: 6.07 µM

Compound: O=C(Nc1ccc(SC(F)F)cc1)c1cccc2nc3ccccc3nc12
- AC40: 9.11 µM

Compound: CCOc1ncccc1C(=O)Nc1ncc(C)s1
- AC40: > 35 µM (inactive)

Compound: CCOC(=O)c1oc2ccccc2c1NC(=O)c1cccs1
- AC40: 14 µM
